Where a name gives a salt, the structure may show the parent alone.
How the values were obtained:
[1] = target: T1, Human FXa (Homo sapiens, UniProt P00742); assay: Determination of anti-factor Xa (FXa) activity, synthetic substrate S-2222; assay type: biochemical; settings: S-2222, 37° C., pH 8.4, read-out: Experimental Example 1: anti-FXa activity, IC50
T1 construct: Human FXa [Enzyme research Laboratories (USA)] enzyme; purchased Enzyme Research Laboratories (USA)
Procedure: Determination of Anti-factor Xa (FXa) Activity
Human FXa [Enzyme research Laboratories (USA)] enzyme (40 μl, 0.16U/ml) and test compounds (40 l) adjusted to various concentrations were incubated in 0.1M Tris (Tris-hydroxymethyl-aminomethane) buffer (pH 8.4) containing 0.2M sodium chloride (herein to be referred to as 0.1 M tris-0.2M NaCl buffer) (40 μl) at 37° C. for 10 min. A synthetic substrate S-2222 (Daiichi Pure Chemical (Tokyo, Japan), 40 μl) adjusted to 0.8 mM was added and the mixture was incubated at 37° C. for 10 min. The reaction was stopped by addition of 60% acetic acid (40 μl) and absorbance at 405 nm was measured by Model 3550 (BIO-RAD). For the control, the solvent was used instead of the test compound.
Target sequence in this assay (P00742 235-488 limits assumed): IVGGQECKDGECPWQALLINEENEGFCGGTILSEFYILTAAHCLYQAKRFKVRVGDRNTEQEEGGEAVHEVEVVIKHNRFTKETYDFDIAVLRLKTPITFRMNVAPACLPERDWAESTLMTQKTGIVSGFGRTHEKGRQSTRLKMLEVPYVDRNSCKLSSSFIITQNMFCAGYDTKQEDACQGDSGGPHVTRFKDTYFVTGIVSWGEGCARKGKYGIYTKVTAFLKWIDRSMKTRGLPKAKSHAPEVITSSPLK
Target sequence in this assay (P00742 41-179 partner limits assumed): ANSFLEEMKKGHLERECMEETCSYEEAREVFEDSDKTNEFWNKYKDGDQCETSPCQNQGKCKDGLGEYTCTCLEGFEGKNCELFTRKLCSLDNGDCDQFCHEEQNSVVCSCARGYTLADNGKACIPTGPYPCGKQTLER

[2] = target: T1, Human FXa; assay: Intravenous administration test in mouse, human FXa inhibitory activity in serum; assay type: in vivo; settings: ICR mice, i.v., mean ± S.D., n = 3
Procedure: Intravenous Administration Tests in Mouse
A test compound dissolved in physiological saline was intravenously administered to ICR mice (body weight 20-30 g, 4-6 weeks old) and the activity of the test compound was evaluated based on the human FXa inhibitory activity in serum as an indicator.
At 10, 30, 60, 120 min from the intravenous administration, blood was taken from the eye ground using a hematocrit tube. The blood was centrifuged at 9000 G for 5 min and the obtained serum was used for the determination.
(§1) Human FXa inhibitory activity was measured as follows. Human FXa [Enzyme research Laboratories (USA)] enzyme (40 μl, 0.5 U/ml) and a 4-fold diluted plasma sample (40 μl) were incubated in 0.1M Tris-0.2M NaCl buffer (pH 8.4) (40 μl) at 37° C. for 10 min. A synthetic substrate S-2222 (Daiichi Pure Chemical (Tokyo, Japan), 40 μl) adjusted to 0.8 mM was added and the mixture was incubated at 37° C. for 5 min. The reaction was stopped by addition of 60% acetic acid (40 μl) and absorbance at 405 nm was measured by Model 3550 (BIO-RAD). For the control, serum or plasma obtained prior to blood sampling was used for measurement. Human FXa inhibitory activity was calculated as inhibition percentage (%) against control.
Target sequence in this assay (P00742 235-488 limits assumed): as the sequence (P00742 235-488 limits assumed) above
Target sequence in this assay (P00742 41-179 limits assumed): as the sequence (P00742 41-179 partner limits assumed) above

[3] = target: T2, Human FIIa (Homo sapiens, UniProt P00734); assay: Determination of anti-factor IIa (FIIa) activity, synthetic substrate S-2238; assay type: biochemical; settings: S-2238, 37° C., pH 8.4, read-out: Experimental Example 2: anti-FIIa activity, IC50
T2 construct: purchased Sigma

[4] = target: T1, Human FXa; assay: Intravenous administration test in monkey, human FXa inhibitory activity in plasma; assay type: in vivo; settings: crab-eating monkey, i.v., mean ± S.D., n = 3
Procedure: as §1
Target sequence in this assay (P00742 235-488 limits assumed): as the sequence (P00742 235-488 limits assumed) above
Target sequence in this assay (P00742 41-179 limits assumed): as the sequence (P00742 41-179 partner limits assumed) above
Intravenous Administration Tests in Monkey
A test compound dissolved in physiological saline was intravenously administered to monkey (crab-eating monkey, body weight 3.5-4.5 kg) and the activity of the test compound was evaluated based on the human FXa inhibitory activity in plasma as an indicator.
(§2) At 10, 30, 60, 120, 180 min from the intravenous administration, blood was taken from the saphenous vein with the passage of time and the blood was centrifuged at 2000 G for 10 min. The obtained citric acid plasma was used for the determination. Human FXa inhibitory activity was determined in the same manner as in the test using mouse.

[5] = target: T1, Human FXa; assay: Oral administration test in monkey, human FXa inhibitory activity in plasma; assay type: in vivo; settings: crab-eating monkey, mean ± S.D., n = 3
Procedure: as §1
Target sequence in this assay (P00742 235-488 limits assumed): as the sequence (P00742 235-488 limits assumed) above
Target sequence in this assay (P00742 41-179 limits assumed): as the sequence (P00742 41-179 partner limits assumed) above
Oral Administration Tests in Monkey
A test compound dissolved in distilled water was orally administered to monkey (carb-eating monkey, body weight 3.5-4.5 kg) and the activity of the test compound was evaluated based on the human FXa inhibitory activity in plasma as an indicator.
as §2, with “At” for “At 10,”, “240, 480” for “180”, “oral” for “intravenous”, “by intravenous administration.” for “using mouse.”

[6] = target: T1, Human FXa; assay: Oral administration test in mouse, human FXa inhibitory activity in serum; assay type: in vivo; settings: ICR mice, mean ± S.D., n = 3
Procedure: as §1
Target sequence in this assay (P00742 235-488 limits assumed): as the sequence (P00742 235-488 limits assumed) above
Target sequence in this assay (P00742 41-179 limits assumed): as the sequence (P00742 41-179 partner limits assumed) above
Oral Administration Tests in Mouse
A test compound dissolved in distilled water was orally administered to ICR mice (body weight 20-30 g, 4-6 weeks old) and the activity of the test compound was evaluated based on the human FXa inhibitory activity in serum as an indicator.
At 30, 60, 120, 180 min from the oral administration, blood was taken from the eye ground using a hematocrit tube. The blood was centrifuged at 9000 G for 5 min and the obtained serum was used for the determination. Human FXa inhibitory activity was determined in the same manner as in the test by intravenous administration.

Compound	IC50 [1] [µM]	inhibition at 1 mg/kg ([2]; 10 minutes) [%]	inhibition at 1 mg/kg ([2]; 30 minutes) [%]	inhibition at 1 mg/kg ([2]; 60 minutes) [%]	IC50 [3] [µM]	also measured
N=C(N)N1CCc2ccc(OCC3(C(=O)O)CCN(c4ccncc4)CC3)cc2C1 [Example 9, 4-(2-Amidino-1,2,3,4-tetrahydroisoquinolin-7-yloxymethyl)-1-(pyridin-4-yl)piperidine-4-carboxylic Acid Hydrochloride]						inhibition at 1 mg/kg ([4]; 10 minutes): 82 ± 1%; inhibition at 1 mg/kg ([4]; 30 minutes): 72 ± 2%; inhibition at 1 mg/kg ([4]; 60 minutes): 58 ± 4%; inhibition at 1 mg/kg ([4]; 120 minutes): 41 ± 3%; inhibition at 1 mg/kg ([4]; 180 minutes): 29 ± 2%; inhibition at 10 mg/kg ([5]; 30 minutes): 28 ± 33%; inhibition at 10 mg/kg ([5]; 60 minutes): 37 ± 27%; inhibition at 10 mg/kg ([5]; 120 minutes): 46 ± 20%; inhibition at 10 mg/kg ([5]; 240 minutes): 49 ± 9%; inhibition at 10 mg/kg ([5]; 480 minutes): 23 ± 11%
CCOC(=O)C1(COc2ccc3c(c2)CN(C(=N)N)CC3)CCN(c2cc(C)nc(C)c2)CC1 [Example 10, 4-(2-Amidino-1,2,3,4-tetrahydroisoquinolin-7-yloxymethyl)-1-(2,6-dimethylpyridin-4-yl)piperidine-4-carboxylic Acid Ethyl Ester Dihydrochloride]	0.7				> 10	
Cc1cc(N2CCC(COc3ccc4c(c3)CN(C(=N)N)CC4)(C(=O)O)CC2)cc(C)n1 [Example 11, 4-(2-Amidino-1,2,3,4-tetrahydroisoquinolin-7-yloxymethyl)-1-(2,6-dimethylpyridin-4-yl)piperidine-4-carboxylic Acid Dihydrochloride]	0.3				> 10	
N=C(N)N1CCc2ccc(OCC3CCN(c4ccnc5ccccc45)CC3)cc2C1 [Example 2, 7-[1-(Quinolin-4-yl)piperidin-4-ylmethoxy]-1,2,3,4-tetrahydroisoquinoline-2-carboxamidine Dihydrochloride]	0.4				> 10	
Cc1cc(N2CCC(COc3ccc4c(c3)CN(C(=N)N)CC4)(C(=O)O)CC2)ccn1 [Example 13, 4-(2-Amidino-1,2,3,4-tetrahydroisoquinolin-7-yloxymethyl)-1-(2-methylpyridin-4-yl)piperidine-4-carboxylic Acid Dihydrochloride]	0.2				> 10	

Now from value to compound, other results behind:

IC50 [1] [µM]	inhibition at 1 mg/kg ([2]; 10 minutes) [%]	inhibition at 1 mg/kg ([2]; 30 minutes) [%]	inhibition at 1 mg/kg ([2]; 60 minutes) [%]	IC50 [3] [µM]	Compound	also measured
0.01	73 ± 1	60 ± 4	40 ± 3	> 10	CC(=N)N1CCC(Oc2ccc(N(Cc3nc4cc(C(=N)N)ccc4n3CC(=O)Nc3ccc(OCc4ccccc4)cc3)C(=O)c3ccc(C(=O)O)cc3)cc2)CC1 [Example 18, 4-[N-[5-Amidino-1-(4-benzyloxyphenylcarbamoylmethyl)benzimidazol-2-ylmethyl]-N-[4-(1-acetimidoylpiperidin-4-yloxy)phenyl]carbamoyl]benzoic Acid Dihydrochloride]	inhibition at 1 mg/kg ([2]; 120 minutes): 23 ± 5%
0.02	55 ± 1	34 ± 2	17 ± 2	> 10	N=C(N)c1ccc2c(c1)nc(CN(C(=O)c1ccc(C(=O)O)cc1)c1ccc(OC3CCN(C(=N)N)CC3)cc1)n2CC(=O)NC1CCCCC1 [Example 65, N-[5-Amidino-1-(cyclohexylcarbamoylmethyl)benzimidazol-2-ylmethyl]-N-[4-(1-amidinopiperidin-4-yloxy)phenyl]carbamoylbenzoic Acid Dihydrochloride]	
0.02	49 ± 1	41 ± 8	23 ± 11	> 10	CCN=C(N)N1CCC(Oc2ccc(N(Cc3nc4cc(C(=N)N)ccc4n3CC(=O)NC3CCCCC3)C(=O)c3ccc(C(=O)O)cc3)cc2)CC1 [Example 112, N-[5-Amidino-1-(cyclohexylcarbamoylmethyl)benzimidazol-2-ylmethyl]-N-[4-[1-(N-ethylamidino)piperidin-4-yloxy]phenyl]carbamoylbenzoic Acid Dihydrochloride]	
0.01	55 ± 3	46 ± 5	16 ± 7	> 10	CC(=N)N1CCC(Oc2ccc(N(Cc3nc4cc(C(=N)N)ccc4n3CC(=O)NC3CCCCC3)C(=O)c3ccc(C(=O)O)cc3)cc2)CC1 [Example 63, N-[5-Amidino-1-(cyclohexylcarbamoylmethyl)benzimidazol-2-ylmethyl]-N-[4-(1-acetimidoylpiperidin-4-yloxy)phenyl]carbamoylbenzoic Acid]	inhibition at 10 mg/kg ([6]; 30 minutes): 22 ± 6%; inhibition at 10 mg/kg ([6]; 60 minutes): 14 ± 9%; inhibition at 10 mg/kg ([6]; 120 minutes): 12 ± 10%; inhibition at 10 mg/kg ([6]; 180 minutes): 12 ± 4%; inhibition at 0.3 mg/kg ([2]; 10 minutes): 32 ± 2%; inhibition at 0.3 mg/kg ([2]; 30 minutes): 16 ± 3%; inhibition at 0.3 mg/kg ([2]; 60 minutes): 4 ± 3%; inhibition at 0.3 mg/kg ([2]; 120 minutes): 1 ± 3%; inhibition at 1 mg/kg ([2]; 120 minutes): 3 ± 6%
0.4				> 10	N=C(N)N1CCc2ccc(OCC3CCN(C(=N)Cc4ccccc4)CC3)cc2C1 [Example 30, 7-(1-Phenylacetimidoylpiperidin-4-ylmethoxy)-1,2,3,4-tetrahydroisoquinoline-2-carboxamidine Dihydrochloride]	
0.7				> 10	N=C(N)N1CCc2ccc(OCC3CCN(S(=O)(=O)NCc4ccccc4)CC3)cc2C1 [Example 83, N-Benzyl-4-(2-amidino-1,2,3,4-tetrahydroisoquinolin-7-yloxymethyl)piperidine-1-sulfonamide hydrochloride]	
0.4				> 10	N=C(N)N1CCc2ccc(OCC3CCN(c4ccc(NC(=O)c5ccccc5)cn4)CC3)cc2C1 [Example 32, N-[2-[4-(2-Amidino-1,2,3,4-tetrahydroisoquinolin-7-yloxymethyl)-piperidin-1-yl]pyridin-5-yl]benzamide Dihydrochloride]	
0.1	55 ± 2	43 ± 5	28 ± 6	> 10	COC(=O)c1ccc(C(=O)N(Cc2nc3cc(C(=N)N)ccc3n2CC(=O)NC2CCCCC2)c2ccc(OC3CCN(C(=N)N)CC3)cc2)cc1 [Example 64, 2-[N-[4-(1-Amidinopiperidin-4-yloxy)phenyl]-N-(4-methoxycarbonyl-benzoyl)aminomethyl]-1-(cyclohexylcarbamoylmethyl)benzimidazole-5-carboxamidine Dihydrochloride]	

Reference: patent US6562828B1, “Amidine compounds” (Japan Tobacco Inc., priority 1998, dated 2003)
